From patent publication US20220340597A1, “HEXAHYDRO-1H-PYRAZINO[1,2-A]PYRAZINE COMPOUNDS FOR THE TREATMENT OF AUTOIMMUNE DISEASE” (Hoffmann-La Roche Inc., priority 2019, published 2022) come the findings set out here.

Some results are limits rather than exact numbers.

The target of this assay is T1, human TLR9 (Homo sapiens, UniProt Q9NR96).
T1 construct: host or cells: HEK293 (HEK-Blue hTLR9)
T1 sequence (Q9NR96 26-1032): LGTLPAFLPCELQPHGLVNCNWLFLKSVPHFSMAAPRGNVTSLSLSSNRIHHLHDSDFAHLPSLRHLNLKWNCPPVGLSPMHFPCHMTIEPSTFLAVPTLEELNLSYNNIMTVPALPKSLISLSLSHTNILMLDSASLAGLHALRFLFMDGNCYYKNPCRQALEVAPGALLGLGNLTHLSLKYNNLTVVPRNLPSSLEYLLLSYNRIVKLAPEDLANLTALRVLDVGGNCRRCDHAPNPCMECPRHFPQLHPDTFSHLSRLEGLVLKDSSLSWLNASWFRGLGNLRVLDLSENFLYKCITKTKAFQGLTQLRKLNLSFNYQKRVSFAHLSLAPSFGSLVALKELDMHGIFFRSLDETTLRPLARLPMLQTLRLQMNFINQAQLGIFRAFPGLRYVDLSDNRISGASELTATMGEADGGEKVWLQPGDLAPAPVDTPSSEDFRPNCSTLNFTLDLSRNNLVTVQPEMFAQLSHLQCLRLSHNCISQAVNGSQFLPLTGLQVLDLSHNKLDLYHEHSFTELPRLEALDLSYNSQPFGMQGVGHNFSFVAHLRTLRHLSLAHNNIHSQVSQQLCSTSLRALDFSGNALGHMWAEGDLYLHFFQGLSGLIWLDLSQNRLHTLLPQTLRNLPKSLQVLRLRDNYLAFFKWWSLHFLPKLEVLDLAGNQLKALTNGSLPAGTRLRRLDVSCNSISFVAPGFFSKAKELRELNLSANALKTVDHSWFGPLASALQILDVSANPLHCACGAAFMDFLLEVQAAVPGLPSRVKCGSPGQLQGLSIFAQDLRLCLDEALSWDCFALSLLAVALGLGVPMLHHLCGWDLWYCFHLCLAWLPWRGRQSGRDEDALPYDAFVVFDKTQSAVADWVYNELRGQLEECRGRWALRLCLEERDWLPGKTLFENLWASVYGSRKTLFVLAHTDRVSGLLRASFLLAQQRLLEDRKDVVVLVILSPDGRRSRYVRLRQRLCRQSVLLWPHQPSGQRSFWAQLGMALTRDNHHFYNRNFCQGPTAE
Description: HEK293-Blue-hTLR-9 cells assay. The assay is classed as cell-based. The conditions noted are these: HEK293-Blue-hTLR9 cells, ODN2006 stimulation, 20 hrs, SEAP reporter; read-out: HEK/hTLR9 IC50. On the procedure:
The following tests were carried out in order to determine the activity of the compounds of formula (I) and (Ia) in HEK293-Blue-hTLR-7/8/9 cells assay.
HEK293-Blue-hTLR-9 Cells Assay:
A stable HEK293-Blue-hTLR-9 cell line was purchased from InvivoGen (Cat. #: hkb-htlr9, San Diego, Calif., USA). These cells were originally designed for studying the stimulation of human TLR9 by monitoring the activation of NF-κB. A SEAP (secreted embryonic alkaline phosphatase) reporter gene was placed under the control of the […] minimal promoter fused to five NF-κB and AP-1-binding sites. The SEAP was induced by activating NF-κB and AP-1 via stimulating HEK-Blue hTLR9 cells with TLR9 ligands. Therefore, the reporter expression was declined by TLR9 antagonist under the stimulation of a ligand, such as ODN2006 (Cat. #: tlr1-2006-1, Invivogen, San Diego, Calif., USA), for incubation of 20 hrs. The cell culture supernatant SEAP reporter activity was determined using QUANTI-Blue™ kit (Cat. #: rep-qb1, Invivogen, San Diego, Calif., USA) at a wavelength of 640 nm, a detection medium that turns purple or blue in the presence of alkaline phosphatase.
Then 20 μL of the supernatant from each well was incubated with 180 μL Quanti-blue substrate solution at 37° C. for 2 h and the absorbance was read at 620-655 nm using a spectrophotometer. The signaling pathway that TLR9 activation leads to downstream NF-κB activation has been widely accepted, and therefore similar reporter assay was modified for evaluating TLR9 antagonist.
On to `Cc1nc(N2CCNCC2)ccc1CN1CCN2[C@@H](C1)CN(c1ccc(C#N)c3ncccc13)C[C@H]2C` [Example 60, 5-[(4R,9aS)-4-methyl-8-[(2-methyl-6-piperazin-1-yl-3-pyridyl)methyl]-3,4,6,7,9,9a-hexahydro-1H-pyrazino[1,2-a]pyrazin-2-yl]quinoline-8-carbonitrile], for which the IC50 was determined as 0.053 µM. For the compound `C[C@H]1CN(c2ccc(C#N)c3ncccc23)C[C@@H]2CN(c3ccc([C@@H]4CNCCO4)cc3)CCN21` [Example 125, 5-[(4S,9aS)-4-methyl-8-[4-[(2R)-morpholin-2-yl]phenyl]-3,4,6,7,9,9a-hexahydro-1H-pyrazino[1,2-a]pyrazin-2-yl]quinoline-8-carbonitrile], the IC50 amounted to 0.12 µM. With `C[C@@H]1CN(c2cccc(CCN3CCN4[C@@H](C3)CN(c3ccc(C#N)c5ncccc35)C[C@H]4C)n2)CCN1` [Example 58, 5-[(4R,9aS)-4-methyl-8-[2-[6-[(3R)-3-methylpiperazin-1-yl]-2-pyridyl]ethyl]-3,4,6,7,9,9a-hexahydro-JH-pyrazino[1,2-a]pyrazin-2-yl]quinoline-8-carbonitrile] the figure was 0.051 µM.

Consider `[2H]c1ccc2c(N3C[C@@H]4CN(c5ccc([C@H]6CNCCO6)cc5)CCN4[C@@H](C)C3)ccc(C#N)c2n1` [Example 107, 5-[(4S,9aS)-4-methyl-8-[4-[(2S)-morpholin-2-yl]phenyl]-3,4,6,7,9,9a-hexahydro-1H-pyrazino[1,2-a]pyrazin-2-yl]-2-deuterio-quinoline-8-carbonitrile], for which the IC50 worked out at 0.146 µM.

As for `C[C@@H]1CN(c2ccc(C#N)c3ncccc23)C[C@@H]2CN(Cc3cncc(N4CCNCC4)c3)CCN21` [Example 57, 5-[(4R,9aS)-4-methyl-8-[(5-piperazin-1-yl-3-pyridyl)methyl]-3,4,6,7,9,9a-hexahydro-1H-pyrazino[1,2-a]pyrazin-2-yl]quinoline-8-carbonitrile], the IC50 was 0.094 µM. As to `C[C@@H]1CN(c2ccc(C#N)c3ncccc23)C[C@@H]2CN(CCc3ccc(N4CC5(CNCCO5)C4)cc3)CCN21` [Example 28, 5-[(4R,9aS)-4-methyl-8-[2-[4-(5-oxa-2,8-diazaspiro[3.5]nonan-2-yl)phenyl]ethyl]-3,4,6,7,9,9a-hexahydro-1H-pyrazino[1,2-a]pyrazin-2-yl]quinoline-8-carbonitrile], the IC50 turned out to be 0.098 µM. Consider `CO[C@@H]1CN(c2ccc(CCN3CCN4[C@@H](C3)CN(c3ccc(C#N)c5ncccc35)C[C@H]4C)cc2)C[C@H]1N` [Example 26, 5-[(4R,9aS)-8-[2-[4-[(3R,4R)-3-amino-4-methoxy-pyrrolidin-1-yl]phenyl]ethyl]-4-methyl-3,4,6,7,9,9a-hexahydro-1H-pyrazino[1,2-a]pyrazin-2-yl]quinoline-8-carbonitrile], for which the IC50 worked out at 0.087 µM. The same measure for `C[C@@H]1CN(c2ccc(C#N)c3ncccc23)C[C@@H]2CN(Cc3cccc(N4CCNCC4)n3)CCN21` [Example 27, 5-[(4R,9aS)-4-methyl-8-[(6-piperazin-1-yl-2-pyridyl)methyl]-3,4,6,7,9,9a-hexahydro-1H-pyrazino[1,2-a]pyrazin-2-yl]quinoline-8-carbonitrile]: 0.049 µM. For the compound `C[C@@H]1CN(c2ccc(C#N)c3ncccc23)C[C@@H]2CN(c3ccnc(N4CCOC[C@H](N)C4)c3)CCN21` [Example 54, 5-[(4R,9aS)-8-[2-[(6R)-6-amino-1,4-oxazepan-4-yl]-4-pyridyl]-4-methyl-3,4,6,7,9,9a-hexahydro-1H-pyrazino[1,2-a]pyrazin-2-yl]quinoline-8-carbonitrile], the IC50 was 0.043 µM. With `C[C@@H]1CN(c2ccc(C#N)c3ncccc23)C[C@@H]2CN(CCc3ccc(N4C[C@@H](N)[C@@H](F)C4)cn3)CCN21` [Example 19, 5-[(4R,9aS)-8-[2-[5-[(3R,4S)-3-amino-4-fluoro-pyrrolidin-1-yl]-2-pyridyl]ethyl]-4-methyl-3,4,6,7,9,9a-hexahydro-1H-pyrazino[1,2-a]pyrazin-2-yl]quinoline-8-carbonitrile], the IC50 was found to be 0.048 µM. The same measure for `C[C@@H]1CN(c2ccc(C#N)n3ncc(F)c23)C[C@@H]2CN(CCc3ccc(N4C[C@@H](N)[C@@H](F)C4)nc3)CCN21` [Example 75, 4-[(4R,9aS)-8-[2-[6-[(3R,4S)-3-amino-4-fluoro-pyrrolidin-1-yl]-3-pyridyl]ethyl]-4-methyl-3,4,6,7,9,9a-hexahydro-1H-pyrazino[1,2-a]pyrazin-2-yl]-3-fluoro-pyrazolo[1,5-a]pyridine-7-carbonitrile]: 0.065 µM. Turning to `C[C@@H]1CN(c2ccc(C#N)c3ncccc23)C[C@@H]2CN(c3ccnc(N4CCOC[C@@H](N)C4)c3)CCN21` [Example 53, 5-[(4R,9aS)-8-[2-[(6S)-6-amino-1,4-oxazepan-4-yl]-4-pyridyl]-4-methyl-3,4,6,7,9,9a-hexahydro-1H-pyrazino[1,2-a]pyrazin-2-yl]quinoline-8-carbonitrile], the IC50 was below 0.032 µM. With `[2H]c1ccc2c(N3C[C@@H]4CN(c5ncc(N6C[C@H]7NCCO[C@@H]7C6)cc5C)CCN4[C@@H](C)C3)ccc(C#N)c2n1` [Example 114, 5-[(4S,9aR)-8-[5-[(4aR,7aR)-3,4,4a,5,7,7a-hexahydro-2H-pyrrolo[3,4-b][1,4]oxazin-6-yl]-3-methyl-2-pyridyl]-4-methyl-3,4,6,7,9,9a-hexahydro-1H-pyrazino[1,2-a]pyrazin-2-yl]-2-deuterio-quinoline-8-carbonitrile] the figure was 0.11 µM; with `C[C@@H]1CN(c2ccc(C#N)c3ncccc23)C[C@@H]2CN(CCc3ccc(N4CC5(CNCCO5)C4)nc3)CCN21` [Example 59, 5-[(4R,9aS)-4-methyl-8-[2-[6-(5-oxa-2,8-diazaspiro[3.5]nonan-2-yl)-3-pyridyl]ethyl]-3,4,6,7,9,9a-hexahydro-1H-pyrazino[1,2-a]pyrazin-2-yl]quinoline-8-carbonitrile], 0.048 µM. The same measure for `C[C@@H]1CN(c2ccc(C#N)c3ncccc23)C[C@@H]2CN(Cc3cnc4c(c3)CNCC4)CCN21` [Example 6, 5-[(4R,9aS)-4-methyl-8-(5,6,7,8-tetrahydro-1,6-naphthyridin-3-ylmethyl)-3,4,6,7,9,9a-hexahydro-1H-pyrazino[1,2-a]pyrazin-2-yl]quinoline-8-carbonitrile]: 0.069 µM. With `C[C@@H]1CN(c2ccc(C#N)c3ncccc23)C[C@@H]2CN(Cc3cccc4c3CNCC4)CCN21` [Example 71, 5-[(4R,9aS)-4-methyl-8-(1,2,3,4-tetrahydroisoquinolin-8-ylmethyl)-3,4,6,7,9,9a-hexahydro-1H-pyrazino[1,2-a]pyrazin-2-yl]quinoline-8-carbonitrile] the figure was 0.079 µM. With `C[C@@H]1CN(c2ccc(C#N)c3ncccc23)C[C@@H]2CN(c3ccnc(N4C[C@@H](F)[C@@H](N)C4)c3)CCN21` [Example 40, 5-[(4R,9aS)-8-[2-[(3S,4R)-3-amino-4-fluoro-pyrrolidin-1-yl]-4-pyridyl]-4-methyl-3,4,6,7,9,9a-hexahydro-1H-pyrazino[1,2-a]pyrazin-2-yl]quinoline-8-carbonitrile], the IC50 is below 0.032 µM. The same measure for `C[C@@H]1CN(c2ccc(C#N)c3ncccc23)C[C@@H]2CN(Cc3ccc4c(c3)CCNC4)CCN21` [Example 10, 5-[(4R,9aS)-4-methyl-8-(1,2,3,4-tetrahydroisoquinolin-6-ylmethyl)-3,4,6,7,9,9a-hexahydro-1H-pyrazino[1,2-a]pyrazin-2-yl]quinoline-8-carbonitrile]: 0.043 µM.
